The test system of the assay is T1, sigma-1 receptor (S1R).
T1 construct: gene SIGMAR1; S1R-GFP expressed in CHO cells; with BiP
In words: S1R/BiP dissociation assay in S1R-GFP CHO cells (GFP-Trap, BiP ELISA). Format: cell-based. Background: ELISA stands for enzyme-linked immunosorbent assay.

Counter-ions that a name gives are not always drawn.

As usually defined, the IC50 is the concentration needed to halve the response being measured. A higher IC50 goes with a need for much substance. Molecule `C[C@]12CC[C@H](O)CC1=CC[C@@H]1[C@@H]2CC[C@]2(C)C(=O)CC[C@@H]12` [DHEA] showed an IC50 of 1170 nM.

Turning to `O=C(OCCN1CCOCC1)C1(c2ccccc2)CCCCC1` [PRE-084, 2-(4-Morpholinethyl)-1-phenylcyclohexanecarboxylate hydrochloride], the IC50 is […].
